Assay results reported in ChEMBL document CHEMBL1150684, “New cytotoxic lupane triterpenoids from the twigs of Coussarea paniculata” (J Nat Prod, 2003).
≈ marks a conversion by molar mass, not a printed value.

Test system: A2780
Assay: Cytotoxicity against human A2780 cells
Type: functional, cell-based

Row | SMILES | IC50
1 | C=C(C)[C@@H]1CC[C@]2(C)CC[C@]3(C)[C@H](CC[C@@H]4[C@@]5(COC(C)=O)CC[C@H](OC(C)=O)C(C)(C)[C@@H]5CC[C@]43C)[C@@H]12 | 9.6 µg/mL (≈ 18.2 µM)
2 | C=C(C)[C@@H]1CC[C@]2(C=O)CC[C@]3(C)[C@H](CC[C@@H]4[C@@]5(C)CC[C@@H](O)C(C)(C)[C@@H]5CC[C@]43C)[C@@H]12 | ≥ 20 µg/mL
3 | C=C(C)[C@@H]1CC[C@]2(C)CC[C@]3(C)[C@H](C[C@@H](O)[C@@H]4[C@]56CC[C@H](OC5=O)C(C)(C)[C@@H]6CC[C@]43C)[C@@H]12 | 18 µg/mL (≈ 39.6 µM)
4 | C=C(C)[C@@H]1CC[C@]2(C(=O)O)CC[C@]3(C)[C@H](CC[C@@H]4[C@@]5(C)CCCC(C)(C)[C@@H]5CC[C@]43C)[C@@H]12 | 17.4 µg/mL (≈ 39.5 µM)
5 | C=C(C)[C@@H]1CC[C@]2(COC(C)=O)CC[C@]3(C)[C@H](CC[C@@H]4[C@@]5(C)CC[C@H](OC(C)=O)C(C)(C)[C@@H]5CC[C@]43C)[C@@H]12 [BETULIN DIACETATE] | ≥ 20 µg/mL
6 | C=C(C)[C@@H]1CC[C@]2(C(=O)O)CC[C@]3(C)[C@H](CC[C@@H]4[C@@]5(C)CC[C@H](O)C(C)(C)[C@@H]5CC[C@]43C)[C@@H]12 [BETULINIC ACID] | ≥ 20 µg/mL
7 | C=C(C)[C@@H]1CC[C@]2(C(=O)O)CC[C@]3(C)[C@H](CC[C@@H]4[C@@]5(C)CC[C@@H](O)C(C)(C)[C@@H]5CC[C@]43C)[C@@H]12 [EPIBETULINIC ACID] | ≥ 20 µg/mL
8 | C=C(C)[C@@H]1CC[C@]2(C)CC[C@]3(C)[C@H](CC[C@@H]4[C@@]5(C)CC[C@H](OC(C)=O)C(C)(C)[C@@H]5CC[C@]43C)[C@@H]12 [LUPENYL ACETATE] | 16 µg/mL
9 | C=C(C)[C@@H]1CC[C@]2(C)CC[C@]3(C)[C@H](CC[C@@H]4[C@@]5(C)CC[C@H](O)C(C)(C)[C@@H]5CC[C@]43C)[C@@H]12 [LUPEOL] | ≥ 20 µg/mL
10 | CC1(C)CC[C@]2(C(=O)O)CC[C@]3(C)C(=CC[C@@H]4[C@@]5(C)CC[C@H](O)C(C)(C)[C@@H]5CC[C@]43C)[C@@H]2C1 [OLEANOLIC_ACID] | ≥ 20 µg/mL
11 | C[C@H]1[C@H](C)CC[C@]2(C(=O)O)CC[C@]3(C)C(=CC[C@@H]4[C@@]5(C)CC[C@H](O)C(C)(C)[C@@H]5CC[C@]43C)[C@H]12 [URSOLIC ACID] | ≥ 20 µg/mL
